We go through two compounds from US10383938B2 (priority 2010, dated 2019).

For one experiment, the system named is TNF protein. The experiment in a line: Local in vivo activity: serum TNF protein by ELISA (Example 11). Details: species or system Balb/c male mice. The conditions noted are these: s.c. 1.0 mg/kg, mean (s.d.) of 4 mice, not detected = less than 10 pg/ml. Here is the method:
(§1) The final dose for either compound was 1.0 mg/kg. At each time point, the mice were bled, sacrificed, and the draining axial and brachial lymph nodes were removed and placed in RNA preservation fluid (RNA later reagent obtained from Ambion Corporation, Austin, Tex.). Serum samples were analyzed for TNF protein concentration (pg/ml) by ELISA as a measure of systemic presence of this cytokine. The draining lymph nodes were processed for measurement of TNF mRNA gene expression by quantitative PCR (7900HT Thermocycler obtained from Applied Biosystems, Carlsbad, Calif.). The data reported (Table 10) is the mean+/−standard deviation (s.d.) for each group. The “not detected” level for serum TNF concentration was less than 10 pg/ml.

In experiment [1] the test system is human peripheral mononuclear cells (PBMC). The experiment in a line: TNF production in human PBMC (Example 7). As to conditions: for TNF: human PBMC, overnight at 37° C., ELISA. The class given is cell-based. Here is the method: The human peripheral blood mononuclear cells were prepared from human volunteers and placed in culture in 96 well microtiter plates. […] The cells were then incubated overnight at 37° C. The medium was removed and TNF concentration (ng/mL) was measured by ELISA assay (Table 6).

Another experiment deals with TNF mRNA. The experiment in a line: Local in vivo activity: TNF mRNA gene expression in draining lymph nodes by quantitative PCR (Example 11). On the set-up: species or system Balb/c male mice. As to conditions: s.c. 1.0 mg/kg; for TNF mRNA Gene Expression in Lymph Nodes [fold increase versus control (s.d.)]: draining axial and brachial lymph nodes. Here is the method: as §1

In experiment [2] the test system is interferon-gamma (IFNgamma). Details: species or system mice. The conditions noted are these: mouse, in vivo.
Experiment [3] has as its system systemic tumor necrosis factor (TNF). The experiment in a line: Systemic TNF induction in vivo after subcutaneous injection (Example 4). The conditions noted are these: mice. Here is the method: The resiquimod preparation was made as an aqueous suspension in PBS.
At one hour and at three hours post dose, the mice were bled and systemic TNF was measured in the serum (pg/mL) by ELISA assay. The results are presented as the geometric means obtained for each group of five animals. […] This can be important in providing localized immune system enhancement without systemic TNF side effects.

Take `CCCCCCCCCCCCCCCCCC(=O)NCCCCOn1c(CCCC)nc2c(N)nc3ccccc3c21` [N-(4-{[4-amino-2-butyl-1H-imidazo[4,5-c]quinolin-1-yl]oxy}butyl)octadecanamide]: the “Serum TNF [pg/ml (s.d.)]” value in the experiment with TNF protein (1 hour post dose), in the experiment on TNF protein (3 hours post dose), with TNF protein (6 hours post dose) and in the experiment on TNF protein (18 hours post dose) was “not detected” in each case. The TNF in experiment [1] (0.014 μM) was 0.13 ng/mL; in experiment [1] (0.043 μM), 0.17 ng/mL; in experiment [1] (0.13 μM), 0.35 ng/mL; in experiment [1] (0.37 μM) it was 2.51 ng/mL; in experiment [1] (1.1 μM), 7.07 ng/mL; in experiment [1] (3.3 μM), 28.73 ng/mL. In addition, the values for the TNF in experiment [1] (10 μM) and in experiment [1] (30 μM) were 31.46 ng/mL and 29.47 ng/mL, respectively. For the same compound, in experiment [1] (summary statement, "as described above"), the “induction of TNF-α production (in words)” value is on record as “induce the production of TNF-α”. For the same compound, in the experiment with TNF mRNA (TNF mRNA induced in draining lymph nodes without TNF protein in serum), the “cytokine induction effects, local versus systemic (in words)” value is given as “primarily local”. For the same compound, the “TNF mRNA Gene Expression in Lymph Nodes [fold increase versus control (s.d.)]” value with TNF mRNA (1 hour post dose) is 0.65 (0.04) fold increase versus control; with TNF mRNA (3 hours post dose), 1.62 (1.23) fold increase versus control; in the experiment with TNF mRNA (6 hours post dose) it was 7.23 (2.07) fold increase versus control; in the experiment on TNF mRNA (18 hours post dose), 1.55 (0.28) fold increase versus control. The “In Vitro Challenge of Isolated Spleenocytes, IFNgamma, Control PBS Challenge” value in experiment [2] came to 4.82 pg/mL. The “In Vitro Challenge of Isolated Spleenocytes, IFNgamma, HA Antigen Challenge” value in experiment [2] came out at 293.51 pg/mL. In addition, in experiment [3] (subcutaneous injection, 1 mg/Kg, summary of Table 3), the “systemic TNF response (in words)” value was “does not induce a systemic TNF response”.

For `CCOCc1nc2c(N)nc3ccccc3c2n1CC(C)(C)O` [Resiquimod, resiquimod, reference compound], the figures for the “Serum TNF [pg/ml (s.d.)]” value in the experiment with TNF protein (1 hour post dose), with TNF protein (3 hours post dose) and with TNF protein (6 hours post dose) were 4082 (873) pg/ml, 107 (35) pg/ml and 18 (4) pg/ml, respectively. Further, the “TNF mRNA Gene Expression in Lymph Nodes [fold increase versus control (s.d.)]” value is 14.19 (3.83) fold increase versus control with TNF mRNA (1 hour post dose), 4.82 (0.70) fold increase versus control in the experiment on TNF mRNA (3 hours post dose), 1.39 (0.27) fold increase versus control with TNF mRNA (6 hours post dose) and 0.90 (0.23) fold increase versus control in the experiment with TNF mRNA (18 hours post dose). For the same compound, the “In Vitro Challenge of Isolated Spleenocytes, IFNgamma, Control PBS Challenge” value in experiment [2] came out at 3.84 pg/mL. Further, the “In Vitro Challenge of Isolated Spleenocytes, IFNgamma, HA Antigen Challenge” value in experiment [2] was 91.88 pg/mL. Moreover, in experiment [3] (s.c. 1 mg/Kg, serum at 1 hour post dose, geometric mean of 5 animals), the “TNF concentration at Times Following Treatment, 1 hour” value came to 1140.41 pg/mL. The “TNF concentration at Times Following Treatment, 3 hour” value in experiment [3] (s.c. 1 mg/Kg, serum at 3 hours post dose, geometric mean of 5 animals) is less than 5 pg/mL.
